Data: patent US12268676B2, “Antiviral applications of picolinic acid and its derivatives” (INDIAN INSTITUTE OF SCIENCE, priority 2021, dated 2025)

Tests used:
[1] = tested on: Influenza virus (NS1 Luc); assay: microbe, parasite or virus in culture; assay type: cell-based, Influenza A virus; conditions: unidentified influenza virus, A549, read-out: inhibition of virus (luminescence, percentage of untreated virus control)
TM4 mycobacteriophage = assay: Effect of drug on TM4 mycobacteriophage; assay type: cell-based; conditions: 10 MOI
Description: (§1) Since most of the naked viruses tested were not inhibited by PA, whether PA would be effective against TM4 mycobacteriophages. M. smegmatis cells in a 48 well plate were treated with increasing concentrations of PA as indicated and OD600 measurements were taken periodically up to 24 hr. […] For the antiviral assay, 1 mM PA was either added at the start of experiment or 3 hr prior to infection. In either case, there was no protection from TM4 mycobacteriophage induced cell death (FIG. 12, panel G).
Effect of drug on TM4 mycobacteriophage: To study the effect of the drug on TM4 phage growth and activity, 7H9 broth supplemented with ADC and CaCl2 was prepared and inoculated with 100 μL of log-phase secondary bacterial culture (OD 1-2) per 5 mL of the media. 1 mM of the drug was added to culture tubes at the appropriate time (either at the start of the experiment or 3 hr before adding the phage in the mid-log phase). The cultures were then incubated at 37° C. with rotary shaking at 180 pm. For phage-treated samples, a 10 MOI TM4 mycobacteriophage was added at a specified interval of the mid-log phase. […] Readings were taken using a spectrophotometer (Jenway 7205 UV/Visible Spectrophotometer) at 600 nm against a media blank.

SARS-CoV-2 spike protein = assay: SARS-CoV-2 spike induced syncytia assay; assay type: cell-based; conditions: Severe acute respiratory syndrome coronavirus 2, Vero C1008, 24 h, read-out: inhibition of syncytia (area, percentage of untreated control)
[2] = tested on: wild type Zika virus (ZIKV) Cambodia strain; assay: ZIKV infection, western blot of flavivirus envelope protein; assay type: cell-based; conditions: 2 mM PA, 0.1 MOI, 48 hr post infection (FIG. 7L)
PR8 WT virus particles = tested on: PR8 WT virus particles; design: species or system Influenza A virus
M. smegmatis cells = assay: Bacterial toxicity assay, OD600; assay type: cell-based, Mycobacterium smegmatis; conditions: up to 24 hr, least concentration tested
Description: as §1
Bacterial toxicity assay: PA stock solution of 1M concentration was prepared in sterile deionized water and diluted to obtain different concentrations (1 mM, 5 mM, 10 Mm, 20 mM, and 40 mM), in a 48-well plate. A total of 2×10^5 cells of M. smegmatis were added to each of the wells. The 48-well plate was placed in a rotary shaker incubator at 37° C. for 24 h. Readings were taken periodically using a Tecan Spark multi-mode plate reader at 600 nm.

Dengue virus (DENV Luc) = assay: microbe, parasite or virus in culture; assay type: cell-based; conditions: A549, 48 h, read-out: inhibition (luciferase, normalized with untreated control)
[3] = mouse, in vivo
[4] = tested on: clathrin mediated endocytosis; assay: Transferrin uptake assay, flow cytometry; conditions: A549, 2 mM PA, 1 hr pulse with 25 μg/mL Tf647
A549 cells = assay: Cytotoxicity of PA, Alamar Blue cell viability; assay type: cell-based, human
Description: Cytotoxicity of picolinic acid (PA) was tested by incubating human lung epithelial cells (A549 cells) with increasing concentrations of PA for up to 72 hrs and cell viability was measured at every 12 hr time intervals using Alamar Blue cell viability reagent (FIG. 1A). A549 cells were procured from ATCC, Manassas, Va., USA.
A549 cells were seeded in 96-well cell culture dishes and 24 hr later treated with 0.02, 0.2, 2, and 20 mM PA in triplicates. Cells were then incubated at 37° C., 5% CO2, and cytotoxicity was measured at 12, 24, 36, 48, 60, and 72 hr post-treatment using AlamarBlue™ Cell Viability Reagent (DAL 1025, Thermo Fisher) as per manufacturer's instructions.

AAV6-GFP particles = assay: AAV6-GFP infection of HEK cells, flow cytometry; assay type: cell-based, Adeno Associated Virus-6; conditions: 2 mM PA, all virus volumes tested, 48 hr p.i.
Rota virus RRV strain = assay: Rotavirus RRV infection of HEK cells, IFA for VP6; assay type: cell-based; conditions: HEK cells pre-treated with 2 mM PA, 12 hr
Description: Percentage positive cells was quantified using ImageJ/Fiji.
Rotavirus RRV infection: A working concentration of Rota virus was prepared by diluting the virus stock 2-fold with complete DMEM containing a final concentration of 2 μg/mL TPCK trypsin. The mixture was incubated at 37° C. for 30 min and further diluted 2-fold in DMEM without serum. This mixture was then used to infect HEK cells that were pre-treated for 3 hr with 2 mM PA. A volume of 100 μL per well, in a 24 well plate was used for 1 hr adsorption, after which the wells were topped up with 400 μL serum free media containing PA. After 12 hr, cells were fixed with 4% formalin and immunolabeled with primary mouse anti VP6, and anti-mouse secondary Alexa Fluor 488 antibodies to detect virus infected cells by IFA.

## O=C(O)c1ccccn1 [PA, pyridine-2-carboxylic acid]
[1]
  inhibition at 2000 µM: 70 to 80%
TM4 mycobacteriophage; 1 mM PA added 3 hr prior to infection
  protection from TM4 mycobacteriophage induced cell death: no protection
TM4 mycobacteriophage; 1 mM PA added at the start of experiment
  protection from TM4 mycobacteriophage induced cell death: no protection
SARS-CoV-2 spike protein
  inhibition at 1000 µM: 70%
  inhibition at 2000 µM: 80%
[2]
  flavivirus envelope protein by western blot: inhibition
PR8 WT virus particles
  virion structural integrity by TEM compared to untreated control: severe disruption of viral envelope
M. smegmatis cells
  non-toxic concentration (OD600): 1 mM
Dengue virus (DENV Luc)
  inhibition at 2000 µM: > 90%
[3]
  toxicity (bodyweight changes over 9 days): toxic
[3]; ip
  body weight vs PBS treated control: no differences in body weight
  decrease in total body weight: 10-12%
[4]
  cellular uptake of transferrin (Tf647 positive cells): did not show any differences
A549 cells; 20 mM PA, 36 hr post treatment
  cell viability: loss of cell viability
A549 cells; over the period of 72 hr
  drug concentration non-toxic to cells: up to 2 mM
AAV6-GFP particles
  decrease in GFP positive cells: 5-10%
Rota virus RRV strain
  effect on virus entry (VP6 positive cells, IFA): did not have any effects
